The structures appear in SMILES notation.

Common to all, as to assay type: functional
The subject of experiment [1] is Plasmodium berghei. The experiment in a line: In vivo antimalarial activity against Plasmodium berghei in mice (Mus musculus) at 80 mg/kg dose as mean survival time.
Experiment [2] concerns Plasmodium berghei. As to the kind of experiment: In vivo antimalarial activity against Plasmodium berghei in mice (Mus musculus) at 160 mg/kg dose as mean survival time.
Experiment [3] relates to Plasmodium berghei. As to the kind of experiment: In vivo antimalarial activity against Plasmodium berghei in mice (Mus musculus) at 20 mg/kg dose as mean survival time.
The test system of experiment [4] is Plasmodium berghei. The experiment in a line: In vivo antimalarial activity against Plasmodium berghei in mice (Mus musculus) at 160 mg/kg dose as mean survival time of mice (Mus musculus) after 60 days.
Experiment [5] concerns Plasmodium berghei. As to the kind of experiment: In vivo antimalarial activity against Plasmodium berghei in mice (Mus musculus) at 40 mg/kg dose as mean survival time.
Experiment [6] deals with Plasmodium berghei. The experiment in a line: In vivo antimalarial activity against Plasmodium berghei in mice (Mus musculus) at 20 mg/kg as mean survival time.
The subject of experiment [7] is Plasmodium berghei. The experiment in a line: In vivo antimalarial activity against Plasmodium berghei in mice (Mus musculus) at 40 mg/kg dose as mean survival time after 60 days.

For the compound `C[C@@H]1CC[C@H]2[C@@H](C)CO[B-]3(OC[C@H](C)[C@@H]4CC[C@@H](C)C[C@H]4O3)O[C@@H]2C1.[Na+]` (stereo partly drawn), the Mean survival time in the experiment with Plasmodium berghei [1] is 10.8 days; in the experiment with Plasmodium berghei [2], 12.6 days; in the experiment on Plasmodium berghei [3], 9 days; in the experiment with Plasmodium berghei [4] it was 28.6 days; in the experiment on Plasmodium berghei [5], 9.6 days.
With `CCOC(=O)/C=C/CC(C)CCC=C(C)C` (stereo not drawn), the Mean survival time was 10.4 days with Plasmodium berghei [1]; 12.4 days in the experiment on Plasmodium berghei [2]; 6 days with Plasmodium berghei [3]; 29.6 days in the experiment on Plasmodium berghei [4]; 8.2 days in the experiment with Plasmodium berghei [5].
For the compound `CCOC(=O)/C=C/C=C(\C)CCC1OC1(C)C` (stereo not drawn), the Mean survival time in the experiment on Plasmodium berghei [1] turned out to be 9.2 days; in the experiment on Plasmodium berghei [2], 12.6 days; in the experiment on Plasmodium berghei [3], 7.8 days; with Plasmodium berghei [4] it was 30.4 days; in the experiment with Plasmodium berghei [5], 8.6 days.
Consider `C[C@@H]1CC[C@@H]([C@@H](C)CO)[C@H](O)C1`, for which the Mean survival time amounted to 7 days in the experiment on Plasmodium berghei [1], 8.2 days with Plasmodium berghei [2], 6.2 days with Plasmodium berghei [5] and 5.4 days with Plasmodium berghei [6].
With `CCOC(=O)C(O)C1OC(C(C)(C)O)CCC1C` (stereo not drawn), the Mean survival time stood at 8.4 days in the experiment on Plasmodium berghei [1], 11.4 days in the experiment with Plasmodium berghei [2], 7.2 days in the experiment with Plasmodium berghei [5] and 6.4 days in the experiment with Plasmodium berghei [6].
Turning to `CCOC(=O)/C=C/C=C(C)C`, the Mean survival time stood at 7.4 days in the experiment with Plasmodium berghei [1], 8.8 days in the experiment on Plasmodium berghei [2], 5.4 days in the experiment with Plasmodium berghei [3] and 6 days with Plasmodium berghei [5].
Turning to `CCOC(=O)/C=C/C(C)CCC=C(C)C` (stereo not drawn), the Mean survival time in the experiment with Plasmodium berghei [1] is 7.2 days; in the experiment with Plasmodium berghei [2], 8 days; in the experiment with Plasmodium berghei [3], 5.4 days; in the experiment on Plasmodium berghei [5] it was 6 days.
Regarding `C[C@@H]1CC[C@H]2[C@@H](C)C(=O)O[C@@H]3O[C@@]4(C)CC[C@@H]1[C@]32OO4` [ARTEMISININ], the values for the Mean survival time in the experiment on Plasmodium berghei [7] and with Plasmodium berghei [3] were 30.6 days and 10.8 days, respectively.

The record behind these values is ChEMBL document CHEMBL1125207, “Monoterpenic fragment analogues of aplasmomycin as potential antimalarial” (1991).
